# Assays:
# [1] = test system: ABUTH (Abutilon theophrasti); assay: Postemergence herbicidal evaluation; assay type: in vivo, Medic.
# Summary of the method: (§1)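 Seedlings grown about two weeks in flats, sprayed, then kept under standard greenhouse care. Rated visually 4–5 weeks after treatment on a 0–9 scale (stand, vigour, malformation, size, chlorosis, overall appearance) relative to untreated control; repeat tests averaged.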
# [2] = test system: GALAP (Galium aparine); assay: Postemergence herbicidal evaluation; assay type: in vivo
# Summary of the method: as §1
# [3] = test system: IPOHE (Ipomoea hederacea); assay: Postemergence herbicidal evaluation; assay type: in vivo, (L.) Jacq.
# Summary of the method: as §1
# [4] = test system: SETVI (Setaria viridis); assay: Postemergence herbicidal evaluation; assay type: in vivo, (L.) Beau
# Summary of the method: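 Ratings use a 0-9 visual scale covering stand, vigor, malformation, size, chlorosis and appearance versus a control, scored 4-5 weeks post-spray. Roughly two-week-old seedlings received about 0.0040-1.000 kg/ha active, applied in 50/50 acetone/water with 0.5% TWEEN 20. Multiple tests per compound were averaged.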
# [5] = test system: GLXMAW (Soybean, Williams); assay: Postemergence herbicidal evaluation; assay type: in vivo, Glycine max, (L.) Merr. cv Williams
# Summary of the method: as §1
# [6] = test system: TRZAWR (Wheat, Winter, cv Riband); assay: Postemergence herbicidal evaluation; assay type: in vivo, Triticum aestivum
# Summary of the method: as §1
# [7] = test system: ABUTH (Abutilon theophrasti); assay: Preemergence herbicidal evaluation; assay type: in vivo, Medic.; conditions: preemergence, rated 4-5 weeks after treatment
# [8] = test system: AMBEL (Ambrosia artemisifolia); assay: Preemergence herbicidal evaluation; assay type: in vivo, L.; conditions: preemergence, rated 4-5 weeks after treatment
# Summary of the method: (§2)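 Applied before emergence as an aqueous acetone spray over seeded soil. Read-out: 0–9 visual rating covering plant stand, vigor, size, chlorosis, malformation and overall appearance compared with control, taken 4–5 weeks after spraying.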
# [9] = test system: CASOB (Cassia obtusifolia); assay: Preemergence herbicidal evaluation; assay type: in vivo, L.; conditions: preemergence, rated 4-5 weeks after treatment
# Summary of the method: as §2
# [10] = test system: CHEAL (Chenopodium album); assay: Preemergence herbicidal evaluation; assay type: in vivo, L.; conditions: preemergence, rated 4-5 weeks after treatment
# Summary of the method: as §2
# [11] = test system: GALAP (Galium aparine); assay: Preemergence herbicidal evaluation; assay type: in vivo; conditions: preemergence, rated 4-5 weeks after treatment
# Summary of the method: as §2
# [12] = test system: ECHCG (Echinochloa crus-galli); assay: Preemergence herbicidal evaluation; assay type: in vivo, (L.) Beau; conditions: preemergence, rated 4-5 weeks after treatment
# Summary of the method: as §2
# [13] = test system: SETVI (Setaria viridis); assay: Preemergence herbicidal evaluation; assay type: in vivo, (L.) Beau; conditions: preemergence, rated 4-5 weeks after treatment
# Summary of the method: as §2
# [14] = test system: ZEAMX (Corn, Field); assay: Preemergence herbicidal evaluation; assay type: in vivo, Zea mays, L.; conditions: preemergence, rated 4-5 weeks after treatment
# [15] = test system: CYPSE (Cyperus serotinus); assay: Flooded paddy, preemergence weed control; assay type: in vivo, Rottb.; conditions: rated 3-4 weeks after treatment, 0-9 rating scale
# Summary of the method: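 Herbicidal effect was scored visually on a 0–9 scale against an untreated control 3–4 weeks after treatment. Compounds were applied preemergence as 50/50 v/v aqueous/acetone mixtures into flood water (1.5–3 cm deep over silt loam), at roughly 0.0080 to 0.1250 kg/ha active ingredient.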
# [16] = test system: MOOVA (Monochoria vaginalis); assay: Flooded paddy, preemergence weed control; assay type: in vivo, Presl.; conditions: rated 3-4 weeks after treatment, 0-9 rating scale
# Summary of the method: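 Visual 0–9 ratings versus controls scored stand, vigor, malformation, size, chlorosis and overall appearance. Plants grew from seeds or propagating organs sown 0.5 cm deep in silt loam, with water held 1.5–3 cm above the soil for the whole test under greenhouse care.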
# [17] = test system: ORYSAT (Rice, Tebonnet); assay: Flooded paddy, post-transplant rice tolerance; assay type: in vivo, Oryza sativa, (L.) Tebonnet; conditions: flooded paddy, post-transplant rice, rated 3-4 weeks after treatment, 0-9 rating scale
# Summary of the method: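 Seedlings aged ten days are transplanted in pairs into undrained pots of silt loam, which are then flooded to a depth of 1.5 to 3 cm. After herbicide application the pots are kept in a greenhouse with the flood maintained. Plants are rated 0-9 by visual comparison with controls.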
compound,measurement,setting,value
"COC(=O)C(C)Oc1ccsc1-c1nsc2ccc(-n3c(=O)cc(C(F)(F)F)n(C)c3=O)cc12 (stereo not shown) [Compound 23, methyl 2-[(2-[5-[3,6-dihydro-3-methyl-2,6-dioxo-4-(trifluoromethyl)-1(2H)-pyrimidinyl]-1,2-benzisothiazol-3-yl]-3-thienyl]oxy]propionate]","Postemergence herbicidal rating, ABUTH",[1]; rate 0.0320 kg/ha,9.0
same,"Postemergence herbicidal rating, ABUTH",[1]; rate 0.0620 kg/ha,9.0
same,"Postemergence herbicidal rating, ABUTH",[1]; rate 0.1250 kg/ha,9.0
same,"Postemergence herbicidal rating, GALAP",[2]; rate 0.0320 kg/ha,1.0
same,"Postemergence herbicidal rating, GALAP",[2]; rate 0.0620 kg/ha,2.0
same,"Postemergence herbicidal rating, GALAP",[2]; rate 0.1250 kg/ha,2.0
same,"Postemergence herbicidal rating, IPOHE",[3]; rate 0.0320 kg/ha,6.0
same,"Postemergence herbicidal rating, IPOHE",[3]; rate 0.0620 kg/ha,5.0
same,"Postemergence herbicidal rating, IPOHE",[3]; rate 0.1250 kg/ha,9.0
same,"Postemergence herbicidal rating, SETVI",[4]; rate 0.0320 kg/ha,1.0
same,"Postemergence herbicidal rating, SETVI",[4]; rate 0.0620 kg/ha,1.0
same,"Postemergence herbicidal rating, SETVI",[4]; rate 0.1250 kg/ha,7.0
same,"Postemergence herbicidal rating, GLXMAW",[5]; rate 0.0320 kg/ha,4.0
same,"Postemergence herbicidal rating, GLXMAW",[5]; rate 0.0620 kg/ha,5.0
same,"Postemergence herbicidal rating, GLXMAW",[5]; rate 0.1250 kg/ha,5.0
same,"Postemergence herbicidal rating, TRZAWR",[6]; rate 0.0320 kg/ha,2.5
same,"Postemergence herbicidal rating, TRZAWR",[6]; rate 0.0620 kg/ha,3.5
same,"Postemergence herbicidal rating, TRZAWR",[6]; rate 0.1250 kg/ha,5.0
same,ABUTH preemergence herbicidal rating,[7]; Rate 0.0620 kg/ha,0.0
same,ABUTH preemergence herbicidal rating,[7]; Rate 0.1250 kg/ha,0.0
same,ABUTH preemergence herbicidal rating,[7]; Rate 0.2500 kg/ha,1.0
same,AMBEL preemergence herbicidal rating,[8]; Rate 0.0620 kg/ha,0.0
same,AMBEL preemergence herbicidal rating,[8]; Rate 0.1250 kg/ha,9.0
same,AMBEL preemergence herbicidal rating,[8]; Rate 0.2500 kg/ha,9.0
same,CASOB preemergence herbicidal rating,[9]; Rate 0.0620 kg/ha,0.0
same,CASOB preemergence herbicidal rating,[9]; Rate 0.1250 kg/ha,1.0
same,CASOB preemergence herbicidal rating,[9]; Rate 0.2500 kg/ha,6.0
same,CHEAL preemergence herbicidal rating,[10]; Rate 0.0620 kg/ha,9.0
same,CHEAL preemergence herbicidal rating,[10]; Rate 0.1250 kg/ha,0.0
same,CHEAL preemergence herbicidal rating,[10]; Rate 0.2500 kg/ha,4.0
same,GALAP preemergence herbicidal rating,[11]; Rate 0.0620 kg/ha,0.0
same,GALAP preemergence herbicidal rating,[11]; Rate 0.1250 kg/ha,0.0
same,GALAP preemergence herbicidal rating,[11]; Rate 0.2500 kg/ha,1.0
same,ECHCG preemergence herbicidal rating,[12]; Rate 0.0620 kg/ha,0.0
same,ECHCG preemergence herbicidal rating,[12]; Rate 0.1250 kg/ha,0.0
same,ECHCG preemergence herbicidal rating,[12]; Rate 0.2500 kg/ha,1.0
same,SETVI preemergence herbicidal rating,[13]; Rate 0.0620 kg/ha,0.0
same,SETVI preemergence herbicidal rating,[13]; Rate 0.1250 kg/ha,0.0
same,SETVI preemergence herbicidal rating,[13]; Rate 0.2500 kg/ha,1.0
same,ZEAMX preemergence herbicidal rating,[14]; Rate 0.0620 kg/ha,0.0
same,ZEAMX preemergence herbicidal rating,[14]; Rate 0.1250 kg/ha,0.0
same,ZEAMX preemergence herbicidal rating,[14]; Rate 0.2500 kg/ha,0.0
same,"herbicidal rating, CYPSE",[15]; rate 0.0320 kg/ha,0.0
same,"herbicidal rating, CYPSE",[15]; rate 0.1250 kg/ha,9.0
same,"herbicidal rating, MOOVA",[16]; rate 0.0320 kg/ha,9.0
same,"herbicidal rating, MOOVA",[16]; rate 0.1250 kg/ha,9.0
same,"herbicidal rating, ORYSAT (rice tolerance)",[17]; rate 0.0320 kg/ha,0.0
same,"herbicidal rating, ORYSAT (rice tolerance)",[17]; rate 0.1250 kg/ha,3.0
"Cn1c(C(F)(F)F)cc(=O)n(-c2ccc3snc(C4SCCS4)c3c2)c1=O [Compound 24, 3-[3-(1,3-dithiolan-2-yl)-1,2-benzisothiazol-5-yl]-1-methyl-6-(trifluoromethyl)uracil]","Postemergence herbicidal rating, ABUTH",[1]; rate 0.0320 kg/ha,9.0
same,"Postemergence herbicidal rating, ABUTH",[1]; rate 0.0620 kg/ha,9.0
same,"Postemergence herbicidal rating, GALAP",[2]; rate 0.0320 kg/ha,3.0
same,"Postemergence herbicidal rating, GALAP",[2]; rate 0.0620 kg/ha,4.0
same,"Postemergence herbicidal rating, IPOHE",[3]; rate 0.0320 kg/ha,9.0
same,"Postemergence herbicidal rating, IPOHE",[3]; rate 0.0620 kg/ha,9.0
same,"Postemergence herbicidal rating, SETVI",[4]; rate 0.0320 kg/ha,0.0
same,"Postemergence herbicidal rating, SETVI",[4]; rate 0.0620 kg/ha,3.0
same,"Postemergence herbicidal rating, GLXMAW",[5]; rate 0.0320 kg/ha,8.0
same,"Postemergence herbicidal rating, GLXMAW",[5]; rate 0.0620 kg/ha,8.5
same,"Postemergence herbicidal rating, TRZAWR",[6]; rate 0.0320 kg/ha,4.0
same,"Postemergence herbicidal rating, TRZAWR",[6]; rate 0.0620 kg/ha,4.0
same,ABUTH preemergence herbicidal rating,[7]; Rate 0.0620 kg/ha,3.5
same,ABUTH preemergence herbicidal rating,[7]; Rate 0.1250 kg/ha,7.0
same,ABUTH preemergence herbicidal rating,[7]; Rate 0.2500 kg/ha,9.0
same,AMBEL preemergence herbicidal rating,[8]; Rate 0.0620 kg/ha,4.5
same,AMBEL preemergence herbicidal rating,[8]; Rate 0.1250 kg/ha,8.0
same,AMBEL preemergence herbicidal rating,[8]; Rate 0.2500 kg/ha,9.0
same,CASOB preemergence herbicidal rating,[9]; Rate 0.0620 kg/ha,0.0
same,CASOB preemergence herbicidal rating,[9]; Rate 0.1250 kg/ha,0.0
same,CASOB preemergence herbicidal rating,[9]; Rate 0.2500 kg/ha,3.0
same,CHEAL preemergence herbicidal rating,[10]; Rate 0.0620 kg/ha,7.5
same,CHEAL preemergence herbicidal rating,[10]; Rate 0.1250 kg/ha,9.0
same,CHEAL preemergence herbicidal rating,[10]; Rate 0.2500 kg/ha,9.0
same,GALAP preemergence herbicidal rating,[11]; Rate 0.0620 kg/ha,5.0
same,GALAP preemergence herbicidal rating,[11]; Rate 0.1250 kg/ha,5.0
same,ECHCG preemergence herbicidal rating,[12]; Rate 0.0620 kg/ha,0.0
same,ECHCG preemergence herbicidal rating,[12]; Rate 0.1250 kg/ha,1.5
same,ECHCG preemergence herbicidal rating,[12]; Rate 0.2500 kg/ha,5.0
same,SETVI preemergence herbicidal rating,[13]; Rate 0.0620 kg/ha,3.5
same,SETVI preemergence herbicidal rating,[13]; Rate 0.1250 kg/ha,8.0
same,SETVI preemergence herbicidal rating,[13]; Rate 0.2500 kg/ha,9.0
same,ZEAMX preemergence herbicidal rating,[14]; Rate 0.0620 kg/ha,0.0
same,ZEAMX preemergence herbicidal rating,[14]; Rate 0.1250 kg/ha,1.0
same,ZEAMX preemergence herbicidal rating,[14]; Rate 0.2500 kg/ha,3.0
same,"herbicidal rating, CYPSE",[15]; rate 0.0320 kg/ha,0.0
same,"herbicidal rating, CYPSE",[15]; rate 0.1250 kg/ha,2.0
same,"herbicidal rating, MOOVA",[16]; rate 0.0320 kg/ha,5.0
same,"herbicidal rating, MOOVA",[16]; rate 0.1250 kg/ha,8.0
same,"herbicidal rating, ORYSAT (rice tolerance)",[17]; rate 0.0320 kg/ha,0.0

# Reference: US6706663B2, “Herbicidal 3-heterocyclic substituted benzisothiazole and benzisoxazole compounds” (Wyeth, priority 2000, dated 2004)
